Experiments:
KIF3BB = target: T1, KIF3BB (Mus musculus, UniProt Q61771); assay: Qdot single-molecule TIRF motility; type: biochemical; details: 10 μM AziPm; 1 mM MgATP, X-rhodamine microtubules, paclitaxel, 5% DMSO, pH 6.9, 25 °C
T1 construct: gene Kif3b; KIF3B Met1-Leu369, C-terminal EB1 dimerization motif, TEV site and His8 tag kept; E. coli; engineered homodimer, Mr 48,011 per chain
T1 sequence (Q61771 1-369): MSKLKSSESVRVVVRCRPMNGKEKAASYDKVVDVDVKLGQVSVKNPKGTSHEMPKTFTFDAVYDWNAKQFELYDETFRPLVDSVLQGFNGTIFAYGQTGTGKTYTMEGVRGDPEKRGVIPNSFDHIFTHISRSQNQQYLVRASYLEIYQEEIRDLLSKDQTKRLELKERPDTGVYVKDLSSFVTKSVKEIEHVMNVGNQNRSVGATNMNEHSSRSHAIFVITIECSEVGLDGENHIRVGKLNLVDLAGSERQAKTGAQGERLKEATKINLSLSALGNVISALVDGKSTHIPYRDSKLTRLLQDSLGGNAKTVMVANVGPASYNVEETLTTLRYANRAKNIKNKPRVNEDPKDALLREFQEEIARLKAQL

KIF3CC = target: T2, KIF3CC (Mus musculus, UniProt O35066); assay: Qdot single-molecule TIRF motility; type: biochemical; details: 10 μM AziPm; 1 mM MgATP, X-rhodamine microtubules, paclitaxel, 5% DMSO, pH 6.9, 25 °C
T2 construct: gene Kif3c; KIF3C Met1-Leu396, C-terminal EB1 dimerization motif, TEV site and His8 tag kept; E. coli; engineered homodimer
T2 sequence (O35066 1-396): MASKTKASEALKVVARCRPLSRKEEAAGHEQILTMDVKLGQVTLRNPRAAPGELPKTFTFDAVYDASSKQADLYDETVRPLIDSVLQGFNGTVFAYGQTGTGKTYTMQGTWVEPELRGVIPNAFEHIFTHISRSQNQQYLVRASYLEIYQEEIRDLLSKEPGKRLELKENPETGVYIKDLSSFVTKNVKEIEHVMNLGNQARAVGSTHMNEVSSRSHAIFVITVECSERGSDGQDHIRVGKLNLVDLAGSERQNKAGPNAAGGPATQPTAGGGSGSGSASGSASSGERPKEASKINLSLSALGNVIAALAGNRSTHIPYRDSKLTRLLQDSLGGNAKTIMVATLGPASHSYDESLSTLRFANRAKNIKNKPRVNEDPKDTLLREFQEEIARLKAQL

With `CC(C)c1ccc(C2(C(F)(F)F)N=N2)cc1O` [AziPm, meta-azipropofol] the “% decrease in run length at 10 μM” value (KIF3BB) was ~ 50% and the “% decrease in run length at 10 μM” value (KIF3CC) was ~ 35%.

Source: PMC6065180, “An allosteric propofol-binding site in kinesin disrupts kinesin-mediated processive movement on microtubules” (The Journal of Biological Chemistry, 2018)
